According to patent US4312861A, “Pharmaceutical compositions containing N-alkyl-N-(nuclearly-substituted) benzylamines having vasotonia-regulating activity” (Hoechst Aktiengesellschaft, priority 1974, dated 1982):

Legend:
[1] = Toxicity in the mouse (Litchfield and Wilcoxon); format: in vivo; conditions: mouse, in vivo, ip
Experimental: (6) Toxicity in the mouse
Toxicity was determined according to Litchfield and Wilcoxon (J. Pharmacol. exp. Ther. 97 (1949), page 399) in the mouse. In comparison, the values with the known substance aescin sodium salt were determined. Comparative tests with 0.1% solution, of venous and optical compatibility on the rabbit yielded similar results.

[2] = tested on: isolated guinea-pig heart; assay: Relative coronary blood-flow change in isolated guinea-pig heart (Langendorff)
Experimental: (4) Relative coronary blood-flow change in an isolated guinea-pig heart.
The tests were carried out according to the method of Langendorff (Pflugers Archiv. 61 (1895), page 219).
In Table 5, the change in coronary blood flow after administration of various quantities of the test substance is compared with that after administration of the known compounds heptaminol and Aescin sodium salt.

perfused rabbit ear = assay: Blood-flow change in perfused isolated rabbit ear, vaso-dilator activity (Ringer-Norfenefrin solution)
Experimental: (3) Blood-flow change in an isolated rabbit ear
The tests were carried out according to Krakow-Pissemski (Pflugers Archiv 151 (1913), page 583 and 156 (1914), page 426). In Table 5a the estimated values of the vaso-constrictor activity in Ringer solutions of varying concentrations are given and in Table 5b values for vasodilatory activity in Ringer-Norfenefrin solutions of varying concentrations are given. As a comparison, the values obtained with the known preparation aescin sodium are given.

[3] = 10 μg (first figure where two are given)
[4] = 30 μg (first figure where two are given)
[5] = 100 μg (first figure where two are given)

Compound	LD50 [1] [mg/kg]	Relative change in coronary blood flow [2, 3]	Relative change in coronary blood flow [2, 4]	other results
CCCCCCCCCNCc1c(C)cc(C)cc1C [compound 18]	50 to 100			
CCCC(C)NCc1c(C)cc(C)cc1C (centres unmarked) [compound 24]	50 to 100			
CCCCCCCNCc1c(C)cc(C)cc1C [compound 16]	50 to 100	+55	+61	
CCCCCC(C)NCc1ccccc1Cl (centres unmarked) [compound 9]	100 to 250			
CCCCCC(C)NCc1c(C)c(C)cc(C)c1C (centres unmarked) [compound 1]	50 to 100	+53	+130	Relative change in coronary blood flow, second figure after slash ([2]; 10 μg): -14; Relative change in coronary blood flow, second figure after slash ([2]; 30 μg): -11
CCCCCC(C)NCc1cccc(Br)c1 (centres unmarked) [compound 11]	100 to 250			
CCCCCC(C)NCc1c(Cl)cccc1Cl (centres unmarked) [compound 10]		+33		
CCCCCC(C)N(Cc1c(C)cc(C)cc1C)CP(C)(C)=O (centres unmarked) [compound 30]	100 to 250	+158	+211	Relative change in blood flow, vaso-dilator activity (perfused rabbit ear; 3 × 10^-5 g/ml): +67; Relative change in blood flow, vaso-dilator activity (perfused rabbit ear; 10^-5 g/ml): +79; Relative change in coronary blood flow [2, 5]: +232
Cc1cc(C)c(CNCCCOC(C)C)c(C)c1 [compound 23]	100 to 250			
CCCCCNCc1c(C)cc(C)cc1C [compound 14]	50 to 100			
CCCCCC(C)NCc1cc(C(C)(C)C)ccc1C (centres unmarked) [compound 6]		+129	+187	
CCCCCC(C)NCc1ccccc1Br (centres unmarked) [compound 12]	100 to 250			Relative change in blood flow, vaso-dilator activity (perfused rabbit ear; 3 × 10^-5 g/ml): +12
Cc1cc(C)c(CNCCCC(C)C)c(C)c1 [compound 19]	100 to 250	+30	+71	Relative change in coronary blood flow, second figure after slash ([2]; 10 μg): -15; Relative change in coronary blood flow, second figure after slash ([2]; 30 μg): -10
CCCCCCNCc1c(C)cc(C)cc1C [compound 15]	50 to 100		+68	Relative change in coronary blood flow, second figure after slash ([2]; 30 μg): -21; Relative change in coronary blood flow, second figure after slash ([2]; 100 μg): -17; Relative change in coronary blood flow [2, 5]: +85
COCCCNCc1c(C)cc(C)cc1C [compound 20]	50 to 100			Relative change in blood flow, vaso-dilator activity (perfused rabbit ear; 3 × 10^-5 g/ml): +30; Relative change in blood flow, vaso-dilator activity (perfused rabbit ear; 10^-4 g/ml): +131; Relative change in blood flow, vaso-dilator activity (perfused rabbit ear; 10^-5 g/ml): +4; Relative change in blood flow, vaso-dilator activity (perfused rabbit ear; 10^-6 g/ml): +12
CCCCCC(C)NCc1c(C)cc(C(C)(C)C)cc1C (centres unmarked) [compound 5]		+118	+280	
CCOCCCNCc1c(C)cc(C)cc1C [compound 21]	50 to 100	+22	+23	
CCCCCCCCNCc1c(C)cc(C)cc1C [compound 17]	25 to 50		+138	
